The structures appear in SMILES notation. A value given as a limit tells only on which side of the number the result lay.

For one experiment, the system named is D-423MG. Kind of experiment: cells. Conditions: Homo sapiens. The experiment is classed as functional, cell-based.
Description: SANGER: Inhibition of human D-423MG cell growth in a cell viability assay.
With `O=C1NC(=O)c2c1c(-c1ccccc1Cl)cc1[nH]c3ccc(O)cc3c21`, the IC50 (as a rule, the concentration needed to halve the response being measured) is > 2000 nM.

Regarding `CN(C)CCOc1ccc(-c2nc(-c3ccncc3)c(-c3ccc4c(c3)CC/C4=N\O)[nH]2)cc1` [SB590885], the concentration for half-maximal inhibition (IC50) was > 5000 nM.

With `CC1(C)CCC(c2ccc(Cl)cc2)=C(CN2CCN(c3ccc(C(=O)NS(=O)(=O)c4ccc(N[C@H](CCN5CCOCC5)CSc5ccccc5)c(S(=O)(=O)C(F)(F)F)c4)cc3)CC2)C1` [NAVITOCLAX], the IC50 is > 2000 nM.

The subject of the next experiment is D-566MG. Kind of experiment: cells. Conditions: Homo sapiens. The experiment is classed as functional, cell-based.
For the molecule `O=C1NC(=O)c2c1c(-c1ccccc1Cl)cc1[nH]c3ccc(O)cc3c21`, the concentration for half-maximal inhibition (IC50) was > 2000 nM.

As to `CN(C)CCOc1ccc(-c2nc(-c3ccncc3)c(-c3ccc4c(c3)CC/C4=N\O)[nH]2)cc1` [SB590885], the concentration for half-maximal inhibition (IC50) is > 5000 nM.

With `CC1(C)CCC(c2ccc(Cl)cc2)=C(CN2CCN(c3ccc(C(=O)NS(=O)(=O)c4ccc(N[C@H](CCN5CCOCC5)CSc5ccccc5)c(S(=O)(=O)C(F)(F)F)c4)cc3)CC2)C1` [NAVITOCLAX], the IC50 is > 2000 nM.

A further experiment relates to EPLC-272H. Kind of experiment: cells. The experiment is classed as functional, cell-based. Conditions: Homo sapiens.
Description: SANGER: Inhibition of human EPLC-272H cell growth in a cell viability assay.
Consider `O=C1NC(=O)c2c1c(-c1ccccc1Cl)cc1[nH]c3ccc(O)cc3c21`, for which the IC50 is > 2000 nM.

`CN(C)CCOc1ccc(-c2nc(-c3ccncc3)c(-c3ccc4c(c3)CC/C4=N\O)[nH]2)cc1` [SB590885]: the half-maximal inhibitory concentration (IC50) was > 5000 nM.

As for `CC1(C)CCC(c2ccc(Cl)cc2)=C(CN2CCN(c3ccc(C(=O)NS(=O)(=O)c4ccc(N[C@H](CCN5CCOCC5)CSc5ccccc5)c(S(=O)(=O)C(F)(F)F)c4)cc3)CC2)C1` [NAVITOCLAX], the half-inhibitory concentration (IC50) was > 2000 nM.

The test system of a further experiment is H-EMC-SS. Nature of the experiment: cells. Type of experiment: functional, cell-based. Conditions: Homo sapiens.
Description: SANGER: Inhibition of human H-EMC-SS cell growth in a cell viability assay.
Regarding `O=C1NC(=O)c2c1c(-c1ccccc1Cl)cc1[nH]c3ccc(O)cc3c21`, the 50% inhibitory concentration (IC50) was > 2000 nM.

As for `CN(C)CCOc1ccc(-c2nc(-c3ccncc3)c(-c3ccc4c(c3)CC/C4=N\O)[nH]2)cc1` [SB590885], the IC50 came to 351 nM.

For `CC1(C)CCC(c2ccc(Cl)cc2)=C(CN2CCN(c3ccc(C(=O)NS(=O)(=O)c4ccc(N[C@H](CCN5CCOCC5)CSc5ccccc5)c(S(=O)(=O)C(F)(F)F)c4)cc3)CC2)C1` [NAVITOCLAX], the IC50 is > 2000 nM.

The test system of a further experiment is H9. Nature of the experiment: cells. Type of experiment: functional, cell-based. Conditions: Homo sapiens.
Description: SANGER: Inhibition of human H9 cell growth in a cell viability assay.
`O=C1NC(=O)c2c1c(-c1ccccc1Cl)cc1[nH]c3ccc(O)cc3c21` gave an IC50 of 832 nM.

In the case of `CN(C)CCOc1ccc(-c2nc(-c3ccncc3)c(-c3ccc4c(c3)CC/C4=N\O)[nH]2)cc1` [SB590885], the IC50 came to 401 nM.

For the molecule `CC1(C)CCC(c2ccc(Cl)cc2)=C(CN2CCN(c3ccc(C(=O)NS(=O)(=O)c4ccc(N[C@H](CCN5CCOCC5)CSc5ccccc5)c(S(=O)(=O)C(F)(F)F)c4)cc3)CC2)C1` [NAVITOCLAX], the IC50 was > 2000 nM.

A further experiment has as its system KNS-62. Nature of the experiment: cells. The experiment is classed as functional, cell-based. Conditions: Homo sapiens.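 Note: inhibition of cell growth, read out with a cell viability assay.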
Description: SANGER: Inhibition of human KNS-62 cell growth in a cell viability assay.
With `CN(C)CCOc1ccc(-c2nc(-c3ccncc3)c(-c3ccc4c(c3)CC/C4=N\O)[nH]2)cc1` [SB590885], the IC50 is > 5 µM.

Turning to `CC1(C)CCC(c2ccc(Cl)cc2)=C(CN2CCN(c3ccc(C(=O)NS(=O)(=O)c4ccc(N[C@H](CCN5CCOCC5)CSc5ccccc5)c(S(=O)(=O)C(F)(F)F)c4)cc3)CC2)C1` [NAVITOCLAX], the IC50 was > 2 µM.

In another experiment the test system is NCI-H1048. Nature of the experiment: cells. The experiment is classed as functional, cell-based. Conditions: Homo sapiens.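 Note: growth inhibition of human NCI-H1048 cells, read out with a cell viability assay.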
Description: SANGER: Inhibition of human NCI-H1048 cell growth in a cell viability assay.
As for `O=C1NC(=O)c2c1c(-c1ccccc1Cl)cc1[nH]c3ccc(O)cc3c21`, the IC50 was > 2000 nM.

On to `CN(C)CCOc1ccc(-c2nc(-c3ccncc3)c(-c3ccc4c(c3)CC/C4=N\O)[nH]2)cc1` [SB590885], for which the IC50 is > 5000 nM.

For the molecule `CC1(C)CCC(c2ccc(Cl)cc2)=C(CN2CCN(c3ccc(C(=O)NS(=O)(=O)c4ccc(N[C@H](CCN5CCOCC5)CSc5ccccc5)c(S(=O)(=O)C(F)(F)F)c4)cc3)CC2)C1` [NAVITOCLAX], the IC50 was 510 nM. This lies in the sub-micromolar range.

The test system of a further experiment is NCI-H2029. Nature of the experiment: cells. Conditions: Homo sapiens. The experiment is classed as functional, cell-based.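 Note: Read-out is a viability assay on the cultured cells, and IC50 is the concentration that suppresses cell growth.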
Description: SANGER: Inhibition of human NCI-H2029 cell growth in a cell viability assay.
Consider `O=C1NC(=O)c2c1c(-c1ccccc1Cl)cc1[nH]c3ccc(O)cc3c21`, for which the concentration for half-maximal inhibition (IC50) is > 2000 nM.

Turning to `CN(C)CCOc1ccc(-c2nc(-c3ccncc3)c(-c3ccc4c(c3)CC/C4=N\O)[nH]2)cc1` [SB590885], the half-maximal inhibitory concentration (IC50) is > 5000 nM.

Take `CC1(C)CCC(c2ccc(Cl)cc2)=C(CN2CCN(c3ccc(C(=O)NS(=O)(=O)c4ccc(N[C@H](CCN5CCOCC5)CSc5ccccc5)c(S(=O)(=O)C(F)(F)F)c4)cc3)CC2)C1` [NAVITOCLAX]: the IC50 was > 2000 nM.

In a further experiment the test system is OC-314. Nature of the experiment: cells. The experiment is classed as functional, cell-based. Conditions: Homo sapiens.
Description: SANGER: Inhibition of human OC-314 cell growth in a cell viability assay.
Take `O=C1NC(=O)c2c1c(-c1ccccc1Cl)cc1[nH]c3ccc(O)cc3c21`: the IC50 is > 2000 nM.

Regarding `CN(C)CCOc1ccc(-c2nc(-c3ccncc3)c(-c3ccc4c(c3)CC/C4=N\O)[nH]2)cc1` [SB590885], the IC50 is > 5000 nM.

For the molecule `CC1(C)CCC(c2ccc(Cl)cc2)=C(CN2CCN(c3ccc(C(=O)NS(=O)(=O)c4ccc(N[C@H](CCN5CCOCC5)CSc5ccccc5)c(S(=O)(=O)C(F)(F)F)c4)cc3)CC2)C1` [NAVITOCLAX], the IC50 was > 2000 nM.

For a further experiment, the system named is SW 1116. Kind of experiment: cells. Type of experiment: functional, cell-based. Conditions: Homo sapiens.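 Note: growth inhibition of SW1116 cells, read out with a cell viability assay.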
Description: SANGER: Inhibition of human SW1116 cell growth in a cell viability assay.
Regarding `O=C1NC(=O)c2c1c(-c1ccccc1Cl)cc1[nH]c3ccc(O)cc3c21`, the IC50 was > 2000 nM.

With `CN(C)CCOc1ccc(-c2nc(-c3ccncc3)c(-c3ccc4c(c3)CC/C4=N\O)[nH]2)cc1` [SB590885], the half-maximal inhibitory concentration (IC50) is > 5000 nM.

`CC1(C)CCC(c2ccc(Cl)cc2)=C(CN2CCN(c3ccc(C(=O)NS(=O)(=O)c4ccc(N[C@H](CCN5CCOCC5)CSc5ccccc5)c(S(=O)(=O)C(F)(F)F)c4)cc3)CC2)C1` [NAVITOCLAX]: the concentration for half-maximal inhibition (IC50) was > 2000 nM.

A further experiment has as its system SW900. Nature of the experiment: cells. Type of experiment: functional, cell-based. Conditions: Homo sapiens.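 Note: IC50 is the concentration that inhibits SW900 cell growth, measured by a cell viability assay.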
Description: SANGER: Inhibition of human SW900 cell growth in a cell viability assay.
For `O=C1NC(=O)c2c1c(-c1ccccc1Cl)cc1[nH]c3ccc(O)cc3c21`, the IC50 is > 2000 nM.

Regarding `CN(C)CCOc1ccc(-c2nc(-c3ccncc3)c(-c3ccc4c(c3)CC/C4=N\O)[nH]2)cc1` [SB590885], the half-maximal inhibitory concentration (IC50) was > 5000 nM.

For the molecule `CC1(C)CCC(c2ccc(Cl)cc2)=C(CN2CCN(c3ccc(C(=O)NS(=O)(=O)c4ccc(N[C@H](CCN5CCOCC5)CSc5ccccc5)c(S(=O)(=O)C(F)(F)F)c4)cc3)CC2)C1` [NAVITOCLAX], the IC50 is > 2000 nM.

Another experiment deals with A549. Nature of the experiment: cells. Type of experiment: functional, cell-based. Conditions: Homo sapiens.
Description: SANGER: Inhibition of human A549 cell growth in a cell viability assay.
Consider `O=C1NC(=O)c2c1c(-c1ccccc1Cl)cc1[nH]c3ccc(O)cc3c21`, for which the IC50 is > 2000 nM.

Consider `CN(C)CCOc1ccc(-c2nc(-c3ccncc3)c(-c3ccc4c(c3)CC/C4=N\O)[nH]2)cc1` [SB590885], for which the concentration for half-maximal inhibition (IC50) is > 5000 nM.

Consider `CC1(C)CCC(c2ccc(Cl)cc2)=C(CN2CCN(c3ccc(C(=O)NS(=O)(=O)c4ccc(N[C@H](CCN5CCOCC5)CSc5ccccc5)c(S(=O)(=O)C(F)(F)F)c4)cc3)CC2)C1` [NAVITOCLAX], for which the IC50 was > 2000 nM.

A further experiment relates to BALL-1. Nature of the experiment: cells. The experiment is classed as functional, cell-based. Conditions: Homo sapiens.
Description: SANGER: Inhibition of human BALL-1 cell growth in a cell viability assay.
On to `O=C1NC(=O)c2c1c(-c1ccccc1Cl)cc1[nH]c3ccc(O)cc3c21`, for which the IC50 is > 2000 nM.

`CN(C)CCOc1ccc(-c2nc(-c3ccncc3)c(-c3ccc4c(c3)CC/C4=N\O)[nH]2)cc1` [SB590885]: the half-maximal inhibitory concentration (IC50) is > 5000 nM.

For the molecule `CC1(C)CCC(c2ccc(Cl)cc2)=C(CN2CCN(c3ccc(C(=O)NS(=O)(=O)c4ccc(N[C@H](CCN5CCOCC5)CSc5ccccc5)c(S(=O)(=O)C(F)(F)F)c4)cc3)CC2)C1` [NAVITOCLAX], the IC50 was > 2000 nM.

In another experiment the test system is BT-549. Kind of experiment: cells. Type of experiment: functional, cell-based. Conditions: Homo sapiens.
Description: SANGER: Inhibition of human BT-549 cell growth in a cell viability assay.
For `O=C1NC(=O)c2c1c(-c1ccccc1Cl)cc1[nH]c3ccc(O)cc3c21`, the half-maximal inhibitory concentration (IC50) was > 2000 nM.

As to `CN(C)CCOc1ccc(-c2nc(-c3ccncc3)c(-c3ccc4c(c3)CC/C4=N\O)[nH]2)cc1` [SB590885], the IC50 was > 5000 nM.

Take `CC1(C)CCC(c2ccc(Cl)cc2)=C(CN2CCN(c3ccc(C(=O)NS(=O)(=O)c4ccc(N[C@H](CCN5CCOCC5)CSc5ccccc5)c(S(=O)(=O)C(F)(F)F)c4)cc3)CC2)C1` [NAVITOCLAX]: the IC50 was > 2000 nM.

For another experiment, the system named is TI-73. Nature of the experiment: cells. Type of experiment: functional, cell-based. Conditions: Homo sapiens.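 Note: cell viability assay measuring how much compounds suppress growth of the cultured cell line.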
Description: SANGER: Inhibition of human TI-73 cell growth in a cell viability assay.
Turning to `O=C1NC(=O)c2c1c(-c1ccccc1Cl)cc1[nH]c3ccc(O)cc3c21`, the half-maximal inhibitory concentration (IC50) was > 2000 nM.

For the molecule `CN(C)CCOc1ccc(-c2nc(-c3ccncc3)c(-c3ccc4c(c3)CC/C4=N\O)[nH]2)cc1` [SB590885], the IC50 is > 5000 nM.

Consider `CC1(C)CCC(c2ccc(Cl)cc2)=C(CN2CCN(c3ccc(C(=O)NS(=O)(=O)c4ccc(N[C@H](CCN5CCOCC5)CSc5ccccc5)c(S(=O)(=O)C(F)(F)F)c4)cc3)CC2)C1` [NAVITOCLAX], for which the IC50 is > 2000 nM.

Another experiment relates to YH-13. Kind of experiment: cells. Conditions: Homo sapiens. The experiment is classed as functional, cell-based.
Description: SANGER: Inhibition of human YH-13 cell growth in a cell viability assay.
Consider `O=C1NC(=O)c2c1c(-c1ccccc1Cl)cc1[nH]c3ccc(O)cc3c21`, for which the IC50 is > 2000 nM.

Regarding `CN(C)CCOc1ccc(-c2nc(-c3ccncc3)c(-c3ccc4c(c3)CC/C4=N\O)[nH]2)cc1` [SB590885], the IC50 was > 5000 nM.

As for `CC1(C)CCC(c2ccc(Cl)cc2)=C(CN2CCN(c3ccc(C(=O)NS(=O)(=O)c4ccc(N[C@H](CCN5CCOCC5)CSc5ccccc5)c(S(=O)(=O)C(F)(F)F)c4)cc3)CC2)C1` [NAVITOCLAX], the 50% inhibitory concentration (IC50) was > 2000 nM.

The subject of another experiment is ZR-75-30. Kind of experiment: cells. Conditions: Homo sapiens. The experiment is classed as functional, cell-based.
Description: SANGER: Inhibition of human ZR-75-30 cell growth in a cell viability assay.
For `O=C1NC(=O)c2c1c(-c1ccccc1Cl)cc1[nH]c3ccc(O)cc3c21`, the half-inhibitory concentration (IC50) is > 2000 nM.

On to `CN(C)CCOc1ccc(-c2nc(-c3ccncc3)c(-c3ccc4c(c3)CC/C4=N\O)[nH]2)cc1` [SB590885], for which the IC50 is > 5000 nM.

Turning to `CC1(C)CCC(c2ccc(Cl)cc2)=C(CN2CCN(c3ccc(C(=O)NS(=O)(=O)c4ccc(N[C@H](CCN5CCOCC5)CSc5ccccc5)c(S(=O)(=O)C(F)(F)F)c4)cc3)CC2)C1` [NAVITOCLAX], the IC50 was > 2000 nM.

Another experiment concerns CHP-134. Nature of the experiment: SANGER: Inhibition of human CHP-134 cell growth in a cell viability assay. Type of experiment: functional, cell-based.
Details: not given
On to `O=C1NC(=O)c2c1c(-c1ccccc1Cl)cc1[nH]c3ccc(O)cc3c21`, for which the 50% inhibitory concentration (IC50) is > 2000 nM.

For the molecule `CN(C)CCOc1ccc(-c2nc(-c3ccncc3)c(-c3ccc4c(c3)CC/C4=N\O)[nH]2)cc1` [SB590885], the IC50 was > 5000 nM.

For the molecule `CC1(C)CCC(c2ccc(Cl)cc2)=C(CN2CCN(c3ccc(C(=O)NS(=O)(=O)c4ccc(N[C@H](CCN5CCOCC5)CSc5ccccc5)c(S(=O)(=O)C(F)(F)F)c4)cc3)CC2)C1` [NAVITOCLAX], inhibition was half-maximal at 163 nM (IC50).
